Reference: patent US20050142534A1, “Methods and compositions related to a matrix chip” (priority 2003, published 2005)

How the values were obtained:
Format in all cases: cell-based
[1] = test system: normal cells and abnormal cells; assay: Inverted slide-based nuclease digestion test with thiol reagent; conditions: thiol reagent added to the treatment solution
Method: Certain embodiments of the invention include a slide-based test. One example of a slide based test includes obtaining a test sample, (e.g., scraping cells off of their culture plates); suspending the sample in phosphate buffered saline (PBS); administering a drop of the cell suspension on a laminin coated slide. The sample administered to the coated slide is allowed to air dry (about 15 minutes). The dried slide is subjected to digestion with ALU (about 15 minutes). After digestion the slide is stained with ethidium bromide (1 minute) and imaged under fluorescence. Aside from being fast, this method is an improvement on standard “smear” methods (like Pap tests) in that it is insensitive to the air-drying artifacts that cause major problems with the standard methods and necessitate using preservatives and fixatives. An alternative sampling technique includes depositing cells by contacting the slide with a tissue block.
Thus, the result of the method is inverted. Inversion of the test can be produced by adding a thiol reagent such as DTT to the treatment solution.

[2] = test system: normal vasculogenic endothelial cells; assay: Formation of vasculogenic cords by normal endothelial cells on matrix; conditions: normal endothelial cells on thin and thick matrix; agent added to the culture medium
From the text: With the specific exception of normal vasculogenic endothelial cells, normal cells and cancer cells of low invasive potential form clusters containing small numbers of cells when grown to less than confluent density on serum proteins absorbed to a solid support or on layers of extracellular matrix ranging from less than 50 microns to over 1000 microns in thickness. […] Normal vasculogenic […] cells grown to confluent density on absorbed serum proteins form characteristic “cobblestone” monolayers. These normal endothelial cells form distinctive cord-like structures when grown on thin matrix and networks of these cords when grown on thick matrix. The formation of these vasculogenic cords, which are known to be precursors to the formation of blood vessels, is prevented by the addition of anti-angiogenic agents such as the drug TNP-470 (a derivative of flimagillin) to the culture medium.

[3] = test system: invasive tumor cells forming tumor nests; assay: Labeling of nuclei of invasive tumor cells in tumor nests on thick matrix by DNA-binding agents; conditions: even after prolonged exposure
From the text: Rather, they form clusters or sheets of cells with no evidence of the formation of perfusion channels. […] Invasive tumor cells grown in vitro on thick matrix and stained by the addition of bisbenzimide to the culture medium show staining restricted to the nuclei of the cells on the peripheries of the individual cell clusters forming the tumor nest. These and other similar experiments reveal that polar agents such as bisbenzimide and doxorubicin are systematically excluded from the cells comprising tumor nests while these cells are accessible to neutral molecules of similar molecular weights.

[4] = test system: tumor cells grown on thin matrix; assay: Labeling of nuclei of tumor cells grown on thin matrix by DNA-binding agents
From the text: Rather, they form clusters or sheets of cells with no evidence of the formation of perfusion channels. […] […] These and other similar experiments reveal that polar agents such as bisbenzimide and doxorubicin are systematically excluded from the cells comprising tumor nests while these cells are accessible to neutral molecules of similar molecular weights.

tumor nest = assay: Perfusion of tumor nests by neutral fluorescent dyes and dextran conjugates; conditions: microinjected into a sinusoid of a tumor nest; fluorescence microscopy
From the text: Invasive tumor cells grown on thick layers of extracellular matrix protein form tumor nests in vitro and can be used as model systems for the evaluation of the efficacy of anti-cancer drugs against similar structures in vivo. Fluorescence microscopy images of a fluorescent dye Texas Red microinjected into a sinusoid of a tumor nest will typically show the movement of the dye into the perfusion channels between clumps of tumor cells in the tumor nest. […] This same pattern of perfusion is evident when neutral fluorescent dyes are applied to tissues or layers of matrix proteins containing tumor nests rather than being injected into the nests.

Row | Compound | labeling of nuclei [3] | labeling of nuclei [4] | other results
1 | O[C@@H](CS)[C@@H](O)CS [DTT] |  |  | effect on result of nuclease digestion test [1]: normal cells remain intact and the abnormal cells are degraded
2 | CO[C@@H]1[C@H](OC(=O)NC(=O)CCl)CC[C@]2(CO2)[C@H]1[C@@]1(C)O[C@@H]1CC=C(C)C [TNP-470] |  |  | formation of vasculogenic cords [2]: prevented
3 | CN1CCN(c2ccc3[nH]c(-c4ccc5[nH]c(-c6ccc(O)cc6)nc5c4)nc3c2)CC1 [bisbenzimide] | only the nuclei of cells on the peripheries of the tumor cell clusters forming the nests are labeled | rapidly and efficiently labeled | 
4 | COc1cccc2c1C(=O)c1c(O)c3c(c(O)c1C2=O)C[C@@](O)(C(=O)CO)C[C@@H]3O[C@H]1C[C@H](N)[C@H](O)[C@H](C)O1 [doxorubicin] | only the nuclei of cells on the peripheries of the tumor cell clusters forming the nests are labeled | rapidly and efficiently labeled | 
5 | Texas Red |  |  | movement of dye into perfusion channels of tumor nest (tumor nest): the tumor nest is permeated by the dye
